In ChEMBL document CHEMBL2429805, “Studies toward the development of new silicon-containing building blocks for the direct (18)F-labeling of peptides” (J Med Chem, 2013):

Assays:
Mus musculus [1] = experiment: Biodistribution in gallbladder of NMRI nude mouse xenografted with human PC3 cells at 8.3 to 15.3 MBq after 117 mins by gamma-counting analysis; type: ADME, organism-based, Gall bladder, PC-3; conditions: in vivo, 1.95 h
Lung [2] = experiment: Biodistribution in lung of NMRI nude mouse xenografted with human PC3 cells at 8.3 to 15.3 MBq after 117 mins by gamma-counting analysis; type: ADME, organism-based, PC-3; conditions: in vivo, 1.95 h
Pancreas [3] = experiment: Biodistribution in pancreas of NMRI nude mouse xenografted with human PC3 cells at 4.8 to 10.5 MBq after 117 mins by gamma-counting analysis in presence of bombesin; type: ADME, organism-based, PC-3; conditions: in vivo, 1.95 h
Pancreas [4] = experiment: Biodistribution in pancreas of NMRI nude mouse xenografted with human PC3 cells at 8.3 to 15.3 MBq after 117 mins by gamma-counting analysis; type: ADME, organism-based, PC-3; conditions: in vivo, 1.95 h
Blood [5] = experiment: Biodistribution in blood of NMRI nude mouse xenografted with human PC3 cells at 4.8 to 10.5 MBq after 117 mins by gamma-counting analysis in presence of bombesin; type: ADME, organism-based, PC-3; conditions: in vivo, 1.95 h
Blood [6] = experiment: Biodistribution in blood of NMRI nude mouse xenografted with human PC3 cells at 8.3 to 15.3 MBq after 117 mins by gamma-counting analysis; type: ADME, organism-based, PC-3; conditions: in vivo, 1.95 h
Liver [7] = experiment: Biodistribution in liver of NMRI nude mouse xenografted with human PC3 cells at 8.3 to 15.3 MBq after 117 mins by gamma-counting analysis; type: ADME, organism-based, PC-3; conditions: in vivo, 1.95 h
Mus musculus [8] = experiment: Biodistribution in tumor of NMRI nude mouse xenografted with human PC3 cells at 4.8 to 10.5 MBq after 117 mins by gamma-counting analysis in presence of bombesin; type: ADME, organism-based, Neoplasm, PC-3; conditions: in vivo, 1.95 h
Lung [9] = experiment: Biodistribution in lung of NMRI nude mouse xenografted with human PC3 cells at 4.8 to 10.5 MBq after 117 mins by gamma-counting analysis in presence of bombesin; type: ADME, organism-based, PC-3; conditions: in vivo, 1.95 h
[10] = Lipophilicity, log D of the compound in 1-octanol/PBS buffer at pH 7.4 after 15 mins by shake flask method; type: physicochemical
Mus musculus [11] = experiment: Biodistribution in urinary bladder of NMRI nude mouse xenografted with human PC3 cells at 8.3 to 15.3 MBq after 60 to 105 mins by PET imaging analysis; type: ADME, organism-based, PC-3; conditions: in vivo
Kidney [12] = experiment: Biodistribution in kidney of NMRI nude mouse xenografted with human PC3 cells at 4.8 to 10.5 MBq after 117 mins by gamma-counting analysis in presence of bombesin; type: ADME, organism-based, PC-3; conditions: in vivo, 1.95 h
Intestine [13] = experiment: Biodistribution in intestine of NMRI nude mouse xenografted with human PC3 cells at 4.8 to 10.5 MBq after 117 mins by gamma-counting analysis in presence of bombesin; type: ADME, organism-based, PC-3; conditions: in vivo, 1.95 h
Mus musculus [14] = experiment: Biodistribution in prostate of NMRI nude mouse xenografted with human PC3 cells at 4.8 to 10.5 MBq after 117 mins by gamma-counting analysis in presence of bombesin; type: ADME, organism-based, Prostate gland, PC-3; conditions: in vivo, 1.95 h
Mus musculus [15] = experiment: Biodistribution in prostate of NMRI nude mouse xenografted with human PC3 cells at 8.3 to 15.3 MBq after 117 mins by gamma-counting analysis; type: ADME, organism-based, Prostate gland, PC-3; conditions: in vivo, 1.95 h
Spleen [16] = experiment: Biodistribution in spleen of NMRI nude mouse xenografted with human PC3 cells at 8.3 to 15.3 MBq after 117 mins by gamma-counting analysis; type: ADME, organism-based, PC-3; conditions: in vivo, 1.95 h
[17] = Ratio of biodistribution in tumor to blood of NMRI nude mouse xenografted with human PC3 cells at 8.3 to 15.3 MBq after 117 mins by gamma-counting analysis; type: ADME, organism-based, PC-3; conditions: tumour, 1.95 h
Mus musculus [18] = experiment: Biodistribution in tumor of NMRI nude mouse xenografted with human PC3 cells at 8.3 to 15.3 MBq after 117 mins by gamma-counting analysis; type: ADME, organism-based, Neoplasm, PC-3; conditions: in vivo, 1.95 h
Mus musculus [19] = experiment: Biodistribution in tumor of NMRI nude mouse xenografted with human PC3 cells at 4.8 to 10.5 MBq after 60 to 105 mins by PET imaging analysis in presence of bombesin; type: ADME, organism-based, Neoplasm, PC-3; conditions: in vivo
Bone = experiment: Biodistribution in bone of NMRI nude mouse xenografted with human PC3 cells at 8.3 to 15.3 MBq after 60 to 105 mins by PET imaging analysis; type: ADME, organism-based, Bone element, PC-3; conditions: in vivo
[20] = Stability of the compound in PBS buffer up to 2 hrs; type: physicochemical
Intestine [21] = experiment: Biodistribution in intestine of NMRI nude mouse xenografted with human PC3 cells at 8.3 to 15.3 MBq after 117 mins by gamma-counting analysis; type: ADME, organism-based, PC-3; conditions: in vivo, 1.95 h
Spleen [22] = experiment: Biodistribution in spleen of NMRI nude mouse xenografted with human PC3 cells at 4.8 to 10.5 MBq after 117 mins by gamma-counting analysis in presence of bombesin; type: ADME, organism-based, PC-3; conditions: in vivo, 1.95 h
Liver [23] = experiment: Biodistribution in liver of NMRI nude mouse xenografted with human PC3 cells at 4.8 to 10.5 MBq after 117 mins by gamma-counting analysis in presence of bombesin; type: ADME, organism-based, PC-3; conditions: in vivo, 1.95 h
Mus musculus [24] = experiment: Biodistribution in gallbladder of NMRI nude mouse xenografted with human PC3 cells at 4.8 to 10.5 MBq after 117 mins by gamma-counting analysis in presence of bombesin; type: ADME, organism-based, Gall bladder, PC-3; conditions: in vivo, 1.95 h
[25] = Ratio of biodistribution in tumor to blood of NMRI nude mouse xenografted with human PC3 cells at 4.8 to 10.5 MBq after 117 mins by gamma-counting analysis in presence of bombesin; type: ADME, organism-based, PC-3; conditions: tumour, 1.95 h
Mus musculus [26] = experiment: Biodistribution in tumor of NMRI nude mouse xenografted with human PC3 cells at 8.3 to 15.3 MBq after 60 to 105 mins by PET imaging analysis; type: ADME, organism-based, Neoplasm, PC-3; conditions: in vivo
Mus musculus [27] = experiment: Biodistribution in abdominal region of NMRI nude mouse xenografted with human PC3 cells at 8.3 to 15.3 MBq after 60 to 105 mins by PET imaging analysis; type: ADME, organism-based, Abdomen, PC-3; conditions: in vivo
Kidney [28] = experiment: Biodistribution in kidney of NMRI nude mouse xenografted with human PC3 cells at 8.3 to 15.3 MBq after 117 mins by gamma-counting analysis; type: ADME, organism-based, PC-3; conditions: in vivo, 1.95 h

CC(C)C[C@H](NC(=O)C[C@H](O)[C@H](CC(C)C)NC(=O)[C@H](Cc1cnc[nH]1)NC(=O)CN(C)C(=O)[C@@H](NC(=O)[C@H](C)NC(=O)[C@H](Cc1c[nH]c2ccccc12)NC(=O)[C@H](CCC(N)=O)NC(=O)CCCCNC(=O)[C@H](CS(=O)(=O)O)NC(=O)[C@H](CS(=O)(=O)O)NC(=O)Cc1ccc([Si]([18F])(C(C)(C)C)C(C)(C)C)cc1)C(C)C)C(N)=O
Drug uptake (Mus musculus [1]): 194 % ID/g
Drug uptake (Lung [2]): 0.65 % ID/g
Drug uptake (Pancreas [3]): 3.4 % ID/g
Drug uptake (Pancreas [4]): 10 % ID/g
Drug uptake (Blood [5]): 1.17 % ID/g
Drug uptake (Blood [6]): 0.91 % ID/g
Drug uptake (Liver [7]): 4.4 % ID/g
Drug uptake (Mus musculus [8]): 1.24 % ID/g
Drug uptake (Lung [9]): 1.4 % ID/g
logD at 0.25 h [10]: 0.3
Drug uptake (Mus musculus [11]): Active
Drug uptake (Kidney [12]): 2.1 % ID/g
Drug uptake (Intestine [13]): 16 % ID/g
Drug uptake (Mus musculus [14]): 0.7 % ID/g
Drug uptake (Mus musculus [15]): 0.37 % ID/g
Drug uptake (Spleen [16]): 0.57 % ID/g
Ratio [17]: 2
Drug uptake (Mus musculus [18]): 1.8 % ID/g
Drug uptake (Mus musculus [19]): Active
Drug uptake (Bone): Not Active
Stability [20]: Stable
Drug uptake (Intestine [21]): 21 % ID/g
Drug uptake (Spleen [22]): 0.57 % ID/g
Drug uptake (Liver [23]): 5.6 % ID/g
Drug uptake (Mus musculus [24]): 236 % ID/g
Ratio [25]: 1.1
Drug uptake (Mus musculus [26]): Active
Drug uptake (Mus musculus [27]): Active
Drug uptake (Kidney [28]): 1.7 % ID/g
